From patent US11192894B2, “Cell impermeable coelenterazine analogues” (PROMEGA CORPORATION, priority 2016, dated 2021)

Biological target: purified NANOLUC® Luciferase (Oplophorus gracilirostris, UniProt Q9GV45, A31E/A60N/A81I/F95D/I117V/K70R/L54V/L99Q/M102K/N193R/P142E/Q151K/Q38R/Q45L/V71I/Y165I)
Format: biochemical
Details: relative value, furimazine set to 1; purified NanoLuc; initial light output three minutes after substrate addition
Experimental: Each compound to be screened was dissolved in DMSO (5 mM) and then further diluted to 100 uM in NANO-GLO® Luciferase Assay Buffer. Each diluted substrate was then combined in equal volumes with purified NANOLUC® Luciferase diluted into CO2 independent media+10% FBS. Initial light output for each substrate was measured in a GloMax®-Multi+ luminometer three minutes after substrate addition and then at five minute intervals as a means to determine signal half-life. […] Km was calculated using GraphPad Prism using non linear Michaelis-Menten regression.

purified NANOLUC® Luciferase, sequence (Q9GV45 28-196 with tags or gaps with the stated changes limits assumed): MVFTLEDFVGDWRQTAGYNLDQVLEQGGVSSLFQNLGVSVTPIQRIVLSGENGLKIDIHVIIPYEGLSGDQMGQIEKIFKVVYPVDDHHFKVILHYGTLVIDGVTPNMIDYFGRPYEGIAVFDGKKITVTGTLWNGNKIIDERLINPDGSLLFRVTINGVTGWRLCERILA

Structure (SMILES) | RLU at 100 uM
O=C(O)CCCOc1cccc(Cc2nc3c(Cc4ccccc4)[nH]c(-c4ccccc4)cn-3c2=O)c1 [JRW-0716, 4-(3-((8-benzyl-3-oxo-6-phenyl-3,7-dihydroimidazo[1,2-a]pyrazin-2-yl)methyl)phenoxy)butanoic acid] | 0.0022
O=c1c(Cc2cc(F)c(OCCCCCCS(=O)(=O)[O-])c(F)c2)nc2c(Cc3ccccc3)[nH]c(-c3ccccc3)cn1-2.[Na+] [JRW-0771, sodium 6-(4-((8-benzyl-3-oxo-6-phenyl-3,7-dihydroimidazo[1,2-a]pyrazin-2-yl)methyl)-2,6-difluorophenoxy)hexane-1-sulfonate] | 0.15
O=c1c(Cc2ccc(OCCCCCCS(=O)(=O)O)c(Cl)c2)nc2c(Cc3ccccc3)[nH]c(-c3cccc(O)c3)cn1-2 [JRW-0805, 6-(4-((8-benzyl-6-(3-hydroxyphenyl)-3-oxo-3,7-dihydroimidazo[1,2-a]pyrazin-2-yl)methyl)-2-chlorophenoxy)hexane-1-sulfonic acid] | 0.17
CC(=O)N[C@@H](CC(=O)O)C(=O)N[C@@H](CC(=O)O)C(=O)N[C@@H](CC(=O)O)C(=O)NCCCCCCOc1cccc(Cc2nc3c(Cc4ccccc4)[nH]c(-c4ccccc4)cn-3c2=O)c1 [JRW-0741, (S)-3-acetamido-4-(((S)-1-(((S)-1-((6-(3-((8-benzyl-3-oxo-6-phenyl-3,7-dihydroimidazo[1,2-a]pyrazin-2-yl)methyl)phenoxy)hexyl)amino)-3-carboxy-1-oxopropan-2-yl)amino)-3-carboxy-1-oxopropan-2-yl)amino)-4-oxobutanoic acid] | 0.0057
O=c1c(Cc2ccc(OCCCCCCCCCCS(=O)(=O)[O-])c(Cl)c2)nc2c(Cc3ccccc3)[nH]c(-c3ccccc3)cn1-2.[Na+] [JRW-0765, sodium 10-(4-((8-benzyl-3-oxo-6-phenyl-3,7-dihydroimidazo[1,2-a]pyrazin-2-yl)methyl)-2-chlorophenoxy)decane-1-sulfonate] | 0.011
O=C(O)c1ccc(-c2cn3c(=O)c(Cc4ccco4)nc-3c(Cc3ccccc3)[nH]2)cc1 [JRW-0790, 4-(8-benzyl-2-(furan-2-ylmethyl)-3-oxo-3,7-dihydroimidazo[1,2-a]pyrazin-6-yl)benzoic acid] | 0.0029
CC(C)(C)OC(=O)CCCOc1cccc(Cc2nc3c(Cc4ccccc4)[nH]c(-c4ccccc4)cn-3c2=O)c1 [JRW-0714, tert-butyl 4-(3-((8-benzyl-3-oxo-6-phenyl-3,7-dihydroimidazo[1,2-a]pyrazin-2-yl)methyl)phenoxy)butanoate] | 0.0013
O=c1c(Cc2ccc(Cl)c(OCCCCCCS(=O)(=O)[O-])c2)nc2c(Cc3ccccc3)[nH]c(-c3ccccc3)cn1-2.[Na+] [JRW-0766, sodium 6-(5-((8-benzyl-3-oxo-6-phenyl-3,7-dihydroimidazo[1,2-a]pyrazin-2-yl)methyl)-2-chlorophenoxy)hexane-1-sulfonate] | 0.015
CC(C)(C)OC(=O)CCCCCOc1cccc(Cc2nc3c(Cc4ccccc4)[nH]c(-c4ccccc4)cn-3c2=O)c1 [JRW-0682, tert-butyl 6-(3-((8-benzyl-3-oxo-6-phenyl-3,7-dihydroimidazo[1,2-a]pyrazin-2-yl)methyl)phenoxy)hexanoate] | 0.0024
CC(C)(C)OC(=O)CCCCCCCOc1cccc(Cc2nc3c(Cc4ccccc4)[nH]c(-c4ccccc4)cn-3c2=O)c1 [JRW-0719, tert-butyl 8-(3-((8-benzyl-3-oxo-6-phenyl-3,7-dihydroimidazo[1,2-a]pyrazin-2-yl)methyl)phenoxy)octanoate] | 0.0011
NCCCCCCOc1ccc(Cc2nc3c(Cc4ccccc4)[nH]c(-c4ccccc4)cn-3c2=O)cc1F [JRW-0801, 2-(4-((6-aminohexyl)oxy)-3-fluorobenzyl)-8-benzyl-6-phenylimidazo[1,2-a]pyrazin-3(7H)-one] | 0.0073
O=C(O)CCCCCCCOc1cccc(Cc2nc3c(Cc4ccccc4)[nH]c(-c4ccccc4)cn-3c2=O)c1 [JRW-0722, 8-(3-((8-benzyl-3-oxo-6-phenyl-3,7-dihydroimidazo[1,2-a]pyrazin-2-yl)methyl)phenoxy)octanoic acid] | 0.023
O=c1c(Cc2cccc(OCCCCCCBr)c2)nc2c(Cc3ccccc3)[nH]c(-c3ccccc3)cn1-2 [JRW-0692, 8-benzyl-2-(3-((6-bromohexyl)oxy)benzyl)-6-phenylimidazo[1,2-a]pyrazin-3(7H)-one] | 0.0025
O=c1c(Cc2cccc(OCCCS(=O)(=O)[O-])c2)nc2c(Cc3ccccc3)[nH]c(-c3ccccc3)cn1-2.[Na+] [JRW-0713, sodium 3-(3-((8-benzyl-3-oxo-6-phenyl-3,7-dihydroimidazo[1,2-a]pyrazin-2-yl)methyl)phenoxy)propane-1-sulfonate] | 0.00081
CC(C)(C)OC(=O)c1cccc(-c2cn3c(=O)c(Cc4ccco4)nc-3c(Cc3ccccc3)[nH]2)c1 [JRW-0755, tert-butyl 3-(8-benzyl-2-(furan-2-ylmethyl)-3-oxo-3,7-dihydroimidazo[1,2-a]pyrazin-6-yl)benzoate] | 0.000043
CC(=O)N[C@@H](CC(=O)O)C(=O)N[C@@H](CC(=O)O)C(=O)N[C@@H](CC(=O)O)C(=O)NCCCCCCOc1ccc(Cc2nc3c(Cc4ccccc4)[nH]c(-c4ccccc4)cn-3c2=O)cc1F [JRW-0806, (S)-3-acetamido-4-(((S)-1-(((S)-1-((6-(4-((8-benzyl-3-oxo-6-phenyl-3,7-dihydroimidazo[1,2-a]pyrazin-2-yl)methyl)-2-fluorophenoxy)hexyl)amino)-3-carboxy-1-oxopropan-2-yl)amino)-3-carboxy-1-oxopropan-2-yl)amino)-4-oxobutanoic acid] | 0.021
O=c1c(Cc2ccc(OCCCCCCCCS(=O)(=O)[O-])c(Cl)c2)nc2c(Cc3ccccc3)[nH]c(-c3ccccc3)cn1-2.[Na+] [JRW-0761, sodium 8-(4-((8-benzyl-3-oxo-6-phenyl-3,7-dihydroimidazo[1,2-a]pyrazin-2-yl)methyl)-2-chlorophenoxy)octane-1-sulfonate] | 0.075
CC(C)(C)OC(=O)CCCCCOc1ccc(Cc2nc3c(Cc4ccccc4)[nH]c(-c4ccccc4)cn-3c2=O)cc1Cl [JRW-0725, tert-butyl 6-(4-((8-benzyl-3-oxo-6-phenyl-3,7-dihydroimidazo[1,2-a]pyrazin-2-yl)methyl)-2-chlorophenoxy)hexanoate] | 0.013
O=c1c(Cc2ccc(OCCCCCCS(=O)(=O)OCC(Cl)(Cl)Cl)c(Cl)c2)nc2c(Cc3ccccc3)[nH]c(-c3ccccc3)cn1-2 [JRW-0665, 2,2,2-trichloroethyl 6-(4-((8-benzyl-3-oxo-6-phenyl-3,7-dihydroimidazo[1,2-a]pyrazin-2-yl)methyl)-2-chlorophenoxy)hexane-1-sulfonate] | 0.0055
